Results taken from publication PMC4737989 (European journal of medicinal chemistry, 2016).

Legend:
HEK293T cells = settings: treated HEK293 cells, Cell-TiterGlo
[1] = molecular target: T1, VDR-LBD / Alexa Fluor-SRC2-3 coactivator peptide (Homo sapiens, UniProt P11473, DEL165-215); assay: VDR-coactivator binding fluorescence polarization assay, agonistic binding; settings: without LG190178
T1 sequence (P11473 with tags, fused parts or gaps DEL165-215 limits assumed): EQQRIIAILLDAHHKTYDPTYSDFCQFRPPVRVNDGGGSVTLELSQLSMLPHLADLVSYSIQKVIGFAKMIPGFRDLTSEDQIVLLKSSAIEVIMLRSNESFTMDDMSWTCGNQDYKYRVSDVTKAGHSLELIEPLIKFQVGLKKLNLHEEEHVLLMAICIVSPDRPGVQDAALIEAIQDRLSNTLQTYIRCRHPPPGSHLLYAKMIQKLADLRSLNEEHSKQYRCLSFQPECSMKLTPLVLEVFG

[2] = molecular target: T1, VDR-LBD / Alexa Fluor-SRC2-3 coactivator peptide; assay: VDR-coactivator binding fluorescence polarization assay, competitive inhibition
VP16-VDR-LBD / SRC1-GAL4 [3] = molecular target: T2, VP16-VDR-LBD / SRC1-GAL4 (Homo sapiens, UniProt P11473); assay: Two-hybrid assay in HEK293T cells, inhibition in the presence of 10 nM 1,25; type: cell-based; settings: 10 nM 1,25(OH)2D3
T2 sequence (P11473 127-423 limits assumed): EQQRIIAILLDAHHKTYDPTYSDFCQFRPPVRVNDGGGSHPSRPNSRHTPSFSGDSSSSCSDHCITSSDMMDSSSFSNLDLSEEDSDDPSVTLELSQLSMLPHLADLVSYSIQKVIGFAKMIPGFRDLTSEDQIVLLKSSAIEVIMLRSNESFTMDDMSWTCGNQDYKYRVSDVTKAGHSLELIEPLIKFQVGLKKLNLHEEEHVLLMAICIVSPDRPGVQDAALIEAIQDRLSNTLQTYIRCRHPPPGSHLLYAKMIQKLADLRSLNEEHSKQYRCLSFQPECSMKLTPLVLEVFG

PPARα-Gal4 = molecular target: T3, PPARα-Gal4 (Homo sapiens, UniProt Q07869); type: cell-based; settings: HEK293 cells, luminescence
T3 sequence (Q07869 1-468): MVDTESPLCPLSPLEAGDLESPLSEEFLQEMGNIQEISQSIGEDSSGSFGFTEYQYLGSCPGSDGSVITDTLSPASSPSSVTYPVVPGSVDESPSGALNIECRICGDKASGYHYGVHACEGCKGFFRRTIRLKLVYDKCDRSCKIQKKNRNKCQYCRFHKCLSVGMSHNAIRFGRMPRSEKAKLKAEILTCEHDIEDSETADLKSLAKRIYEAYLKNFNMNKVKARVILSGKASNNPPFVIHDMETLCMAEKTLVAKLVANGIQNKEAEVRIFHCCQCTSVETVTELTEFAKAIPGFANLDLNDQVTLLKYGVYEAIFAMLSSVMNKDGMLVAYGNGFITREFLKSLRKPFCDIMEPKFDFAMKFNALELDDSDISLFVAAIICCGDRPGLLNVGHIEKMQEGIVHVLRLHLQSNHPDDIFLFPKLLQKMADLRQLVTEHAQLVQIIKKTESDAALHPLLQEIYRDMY

VDR target gene CYP24A1 = assay: CYP24A1 gene regulation in DU145 cells by qRT-PCR; type: cell-based; settings: 7.5 μM, with 20 nM 1,25(OH)2D3, 18 hours
VDR = settings: cited from earlier work
VP16-VDR-LBD / SRC1-GAL4 [4] = molecular target: T2, VP16-VDR-LBD / SRC1-GAL4; assay: Two-hybrid assay in HEK293T cells, agonist mode; type: cell-based

C[C@H](CCC(=O)O)[C@H]1CC[C@H]2[C@@H]3[C@H](O)C[C@@H]4C[C@H](O)CC[C@]4(C)[C@H]3CC[C@]12C [CDCA, chenodeoxycholic acid]
Toxicity LD50 (HEK293T cells): >150 µM

C=C1/C(=C\C=C2/CCC[C@]3(C)[C@@H]([C@H](C)CC(=O)O)CC[C@@H]23)C[C@@H](O)C[C@@H]1O [Calcitroic Acid, calcitroic acid]
VDR-LBD recruitment of SRC2-3 coactivator peptide (in words) [1]: not able to support
Potency of VDR-SRC2-3 inhibition relative to LCA ([2]; ratio of IC50 values): approximately six times more potent

CC(=O)O[C@@H]1CC[C@@]2(C)[C@H](CC[C@@H]3[C@@H]2CC[C@]2(C)[C@@H]([C@H](C)CCC(=O)O)CC[C@@H]32)C1 [LCA Acetate]
VDR-LBD recruitment of SRC2-3 coactivator peptide (in words) [1]: not able to support
Inhibition of VDR-SRC1 binding in the presence of 1,25(OH)2D3 (in words) (VP16-VDR-LBD / SRC1-GAL4 [3]): No inhibition

C[C@H](CCC(=O)O)[C@H]1CC[C@H]2[C@@H]3CC[C@@H]4C[C@H](O[C@@H]5O[C@H](C(=O)O)[C@@H](O)[C@H](O)[C@H]5O)CC[C@]4(C)[C@H]3CC[C@]12C [LCA Gluc I, lithocholic acid glucuronide I]
Inhibition of VDR-SRC1 binding in the presence of 1,25(OH)2D3 (in words) (VP16-VDR-LBD / SRC1-GAL4 [3]): no inhibition
Activation of transcription for the PPARα-Gal4 system (PPARα-Gal4): no activation of transcription

C[C@H](CCC(=O)O[C@@H]1O[C@H](C(=O)O)[C@@H](O)[C@H](O)[C@H]1O)[C@H]1CC[C@H]2[C@@H]3CC[C@@H]4C[C@H](O)CC[C@]4(C)[C@H]3CC[C@]12C [LCA Gluc II, lithocholic acid glucuronide II]
Inhibition of VDR-SRC1 binding in the presence of 1,25(OH)2D3 (in words) (VP16-VDR-LBD / SRC1-GAL4 [3]): no inhibition
Activation of transcription for the PPARα-Gal4 system (PPARα-Gal4): no activation of transcription
Induction of CYP24A1 in the presence of 1,25(OH)2D3 (in words) (VDR target gene CYP24A1): more pronounced

C[C@H](CCC(=O)O)[C@H]1CC[C@H]2[C@@H]3CC[C@@H]4C[C@H](O)CC[C@]4(C)[C@H]3CC[C@]12C [LCA, lithocholic acid]
Reported cellular activity (VDR): approximately 10 μM

COC(=O)CC[C@@H](C)[C@H]1CC[C@H]2[C@@H]3CC[C@@H]4C[C@H](O)CC[C@]4(C)[C@H]3CC[C@]12C [LCME, lithocholic acid methyl ester]
VDR-LBD recruitment of SRC2-3 coactivator peptide (in words) [1]: not able to support
Activation in the cellular VDR-SRC1 2-hybrid assay (in words) (VP16-VDR-LBD / SRC1-GAL4 [4]): did not activate transcription
Inhibition of VDR-SRC2-3 binding (in words) ([2]; fluorescence polarization, with LG190178): inactive

C[C@H](CCC(=O)O)[C@H]1CC[C@H]2[C@@H]3[C@@H](O)C[C@@H]4C[C@H](O)CC[C@]4(C)[C@H]3CC[C@]12C [UDCA, ursodeoxycholic acid]
Toxicity LD50 (HEK293T cells): >150 µM
